Test results from patent US20220249535A1, “COMPOSITIONS COMPRISING NICOTINAMIDE ADENINE DINUCLEOTIDE-RELATED COMPOUNDS AND USE THEREOF” (Rejuvenation Therapeutics, priority 2019, published 2022).

Tests used:
NAD+ levels in the blood = assay: Blood NAD+ level in subjects during daily oral dosing (Example 1); assay type: in vivo, human
Procedure: Study Design • In this study, safety, pharmacokinetics, and pharmacodynamics of NAM, NA, NMN, and NR were studied. Before receiving the first oral dose of NAM, NA, NMN, and NR formulated as a dietary supplement, but after screening and informed consent, eligible subjects underwent blood and urine samplings on Day 1 to establish baseline levels of NAD+ and other compounds. Subsequently, each subject received one of the following dosages: • 1. daily doses of 1000 mg NR for 7 days: • 2. daily doses of NR 300 mg for 14 days and then added NAM 1000 mg for 7 days; • 3. daily doses of 300 mg NR for 7 days; • 4. daily doses of 1000 mg NAD+ for 7 days; • 5. daily doses of 1000 mg NAM for 14 days: • 6. daily doses of 300 mg NA for 14 days: • 7. daily doses of 1000 mg NMN for 7 days: • 8. daily doses of NAM, NA, NMN, and NR, one at a time, including 300 mg NA and 300 mg NR for 11 days followed by 300 mg NA, 300 mg NR, and 1000 mg NAM for 11 days; • 9. daily doses of 300 mg NR and 1000 mg NAM for 9 days; • 10. daily doses of NAM, NA, and NR, one at a time, including 300 mg NA and 300 mg NR for 11 days followed by 300 mg NA, 300 mg NR, and 1000 mg NAM for 11 days. • Each subject underwent serial blood and urine sampling during the daily dosing of NAM, NA, NMN, and NR, or a mixture of the foregoing.
Inclusion Criteria: • 1. Healthy male or female, age>18 years. • 2. Signed, informed consent. • 3. […] Healthy as determined by laboratory results and medical history. • 5. Agrees to maintain current level of physical activity throughout the study. • 6. Agrees to avoid study compounds for 30 days prior to enrollment and during the study 7. • 7. Agrees to avoid nutritional yeast, whey proteins, energy drinks, pomegranate, pomegranate juice, grapefruit, grapefruit juice and alcohol 7 days prior to enrollment and during study • 8. Willingness and ability to comply with scheduled visits, cell phone calls, treatment plans, laboratory tests, and completion of other study procedures as specified in the protocol.
Exclusion Criteria: • 1. Women who were pregnant, breastfeeding, or planning to became pregnant during the course of the trial. • 2. Subjects who were smokers • 3. Unstable medical conditions as determined by the Investigator • 4. Immunocompromised individuals such as subjects that had undergone organ transplantation or subjects diagnosed with human immunodeficiency virus (HIV) • 5. Clinically significant abnormal lab results at screening (e.g., AST, ALT or ALP>2×ULN, and/or bilirubin>1×ULN) • 6. Subjects who had planned surgery during the course of the trial • 7. History of or current diagnosis of any cancer (except for successfully treated basal cell carcinoma) diagnosed less than 5 years prior to screening. Subjects with cancer in full remission more than 5 years after diagnosis were acceptable • 8. History of blood/bleeding disorders • 9. Blood donation in the past 2 months • 10. Alcohol abuse (>2 standard alcoholic drinks per day) or drug abuse within the past 6 months • 11. Participation in a clinical research trial within 30 days prior to randomization • 12. Allergy or sensitivity to study supplement ingredients provided during the study • 13. Individuals who were cognitively impaired and/or who were unable to give informed consent. • 14. Any other condition which in the Investigator's opinion may adversely affect the subject's ability to complete the study or its measures or which may pose significant risk to the subject
Clinical Data and Sample Collections • 1. Height, weight, temperature, BP, heart rate, demographics • 2. Physical examination • 3. Medical history, concomitant dietary supplements (if any) and concomitant medications (if any) • 4.

[1] = murine plasma or fetal-bovine-serum containing culture medium; cited from earlier work
[2] = after NMN supplementation; through the liver and bloodstream intact into muscle; cited from earlier work
[3] = compared with NAM; cited from earlier work

| Compound | NAD+ level in response to intake (NAD+ levels in the blood; 300 mg daily for 14 days) | NAD+ level in response to intake (NAD+ levels in the blood; 1000 mg daily for 7 days) | also measured |
| --- | --- | --- | --- |
| NC(=O)c1ccc[n+]([C@@H]2O[C@H](CO)[C@@H](O)[C@H]2O)c1 [NR, nicotinamide riboside] | increasing NAD+ level | increasing NAD+ levels | Stability [1]: can quickly degrade into NAM |
| NC(=O)c1ccc[n+]([C@@H]2O[C@H](COP(=O)([O-])O)[C@@H](O)[C@H]2O)c1 [NMN, nicotinamide mononucleotide] |  | increasing NAD+ levels | Time to metabolism to NAD+ [2]: ≤ 30 min; Retention in the body [3]: retained in the body for longer than NAM |
| O=C(O)c1cccnc1 [NA, nicotinic acid] | increasing NAD+ levels |  |  |
| Nicotinamide adenine dinucleotide [NAD+] |  | increasing NAD+ level | NAD+ level in response to intake (NAD+ levels in the blood; 1000 mg daily for 7 days, listed as NAD): increasing NAD+ levels |
| NC(=O)c1cccnc1 [NAM, nicotinamide] |  |  | NAD+ level in response to intake (NAD+ levels in the blood; 1000 mg daily for 14 days): increasing NAD+ levels |
